Reference: US3948911A, “Substituted quinoxaline-2-carboxamide 1,4-dioxides” (Pfizer Inc., priority 1974, dated 1976)
Values after ≈ are worked out from the molar mass of the structure shown. Where two headings read alike, the source gives them in different places.

How the values were obtained:
[1] = tested on: E. coli; assay: in vitro antibacterial activity, two-fold serial dilution in Brain-Heart Infusion Broth, MIC; type: cell-based; details: for MIC: Escherichia coli, read-out: IN VITRO MIC E. coli
Experimental: (§1) The broth is inoculated with bacteria and with the test quinoxaline-1,4-dioxide and then it is incubated overnight under anerobic conditions. On the next day, the test is read visually. The minimum inhibitory concentration (MIC) of the test compound is the lowest concentration which prevents turbidity, i.e., which prevents growth of the microorganism.
(§2) In vitro and in vivo activity of representative compounds of this invention, determined as aforesaid, are reported in the following tabulation for compounds of the formula: ##SPC3##

[2] = tested on: Strep. pyogenes; assay: as above; type: cell-based; details: overnight, anaerobic; for MIC: Streptococcus pyogenes
Experimental: as §1, §2

[3] = tested on: E. coli; assay: in vivo activity in mice infected with a lethal inoculum, survivors; details: for IN VIVO Survivors-SC E. coli / responders at 25 mg/kg: subcutaneous; for IN VIVO Survivors-SC E. coli / responders at 25 mg/kg / IN VIVO Survivors (PO) E. coli: 25 mg./kg., survivors/treated mice
Experimental: (§3) In determining in vivo activity of the quinoxaline-1,4-dioxides of this invention, the test compound is administered to mice which have been infected by […] injection of a lethal inoculum of pathogenic bacteria. The test compound is administered using a multiple dosing regimen and using either the oral (PO) or the subcutaneous (SC) route. The inoculum of bacteria varies from about 1 to about 10 times the amount needed to kill 100% of the mice under the conditions of the test. At the end of the test, the activity of the compound is assessed by counting the number of survivors among the treated animals.
as §2

[4] = tested on: Strep. pyogenes; assay: as above; details: for IN VIVO Survivors (PO) Strep. pyogenes / IN VIVO Survivors-SC Strep. pyogenes / responders at 50 mg/kg: 50 mg./kg., survivors/treated mice; for responders at 100 mg/kg / responders at 50 mg/kg: Streptococcus pyogenes; for responders at 100 mg/kg: footnote (c): dosage = 100 mg./kg.
Experimental: as §3, §2

[5] = Brain-Heart Infusion Broth, overnight, anaerobic
[6] = sc, subcutaneous, read-out: IN VIVO Survivors-SC Strep. pyogenes (converted)
[7] = oral, read-out: IN VIVO Survivors (PO) Strep. pyogenes (converted)

Row | Compound | IN VITRO MIC E. coli [1, 5] | IN VITRO MIC Strep. pyogenes [2] | IN VIVO Survivors-SC E. coli [3] | IN VIVO Survivors (PO) Strep. pyogenes ([4]; oral) | IN VIVO Survivors-SC Strep. pyogenes ([4]; subcutaneous) | MIC [1] | MIC [2] | responders at 25 mg/kg ([3]; Escherichia coli, sc) | IN VIVO Survivors (PO) E. coli [3] | responders at 100 mg/kg ([4]; sc, subcutaneous, read-out: IN VIVO Survivors-SC Strep. pyogenes) | responders at 100 mg/kg ([4]; oral, read-out: IN VIVO Survivors (PO) Strep. pyogenes) | MIC [1, 5] | responders at 50 mg/kg [4, 6] | responders at 50 mg/kg [4, 7] | responders at 100 mg/kg ([3]; Escherichia coli, sc, read-out: IN VIVO Survivors-SC E. coli)
1 | 6-(7)-Formyl-N-(2-Hydroxyethyl)-3-Methyl-2-Quinoxalinecarboxamide 1,4-Dioxide Ethylene Acetal [NHCH2 CH2 OH 6(7)-OO.angle.C.angle.H CH3] | 25 µg/mL | 0.781 µg/mL | 3/10 | 3/10 | 2/10 | – | – | – | – | – | – | – | – | – | –
2 | CC(=O)c1ccc2c(c1)[n+]([O-])c(C)c(C(=O)N(C)C)[n+]2[O-] [N(CH3)2 6-COCH3 CH3] | – | – | – | – | – | 6.25 µg/mL (≈ 21.6 µM) | 6.25 µg/mL (≈ 21.6 µM) | 20% | 0/5 | 60% | 50% | – | – | – | –
3 | CC(=O)c1ccc2c(c1)[n+]([O-])c(C(=O)N(C)C)c(C)[n+]2[O-] [N(CH3)2 7-COCH3 CH3] | – | – | – | – | – | – | 6.25 µg/mL (≈ 21.6 µM) | 0% | – | – | – | 6.25 µg/mL (≈ 21.6 µM) | 60% | 20% | –
4 | CC(=O)c1ccc2c(c1)[n+]([O-])c(C)c(C(N)=O)[n+]2[O-] [NH2 6-COCH3 CH3, 6- and 7-Acetyl-3-Methyl-2-Quinoxalinecarboxamide 1,4-dioxide] | – | – | – | – | – | – | < 0.391 µg/mL | 100% | 5/5 | – | – | < 0.391 µg/mL | 100% | 90% | –
5 | CC(=O)c1ccc2c(c1)[n+]([O-])c(C(N)=O)c(C)[n+]2[O-] [NH2 7-COCH3 CH3, 6- and 7-Acetyl-3-Methyl-2-Quinoxalinecarboxamide 1,4-dioxide] | – | – | – | – | – | – | 0.391 µg/mL (≈ 1.5 µM) | 100% | – | – | – | < 0.391 µg/mL | 100% | 80% | –
6 | Cc1c(C(N)=O)[n+]([O-])c2cc(C3(C)OCCO3)ccc2[n+]1[O-] [NH2 7-OO.angle.C.angle.CH3 CH3] | – | – | – | – | – | – | 12.5 µg/mL (≈ 40.9 µM) | 100% | 3/5 | – | – | 12.5 µg/mL (≈ 40.9 µM) | 80% | 80% | –
7 | CC(=O)c1ccc2c(c1)[n+]([O-])c(C)c(C(=O)NCCO)[n+]2[O-] [NHCH2 CH2 OH 6-COCH3 CH3] | – | – | – | – | – | – | < 0.391 µg/mL | – | – | – | – | < 0.391 µg/mL | 50% | 20% | 30%
8 | CNC(=O)c1c(C)[n+]([O-])c2cc(C(C)=O)ccc2[n+]1[O-] [NHCH3 6-COCH3 CH3] | – | – | – | – | – | – | 0.781 µg/mL (≈ 2.84 µM) | 80% | 7/10 | – | – | < 0.391 µg/mL | 60% | 40% | –
9 | CNC(=O)c1c(C)[n+]([O-])c2ccc(CO)cc2[n+]1[O-] [NHCH3 7-CH2 OH CH3] | – | – | – | – | – | – | > 200 µg/mL | 90% | – | – | – | 6.25 µg/mL (≈ 23.7 µM) | 20% | 10% | –
10 | CNC(=O)c1c(C)[n+]([O-])c2ccc(C(C)=O)cc2[n+]1[O-] [NHCH3 7-COCH3 CH3] | – | – | – | – | – | – | 0.391 µg/mL (≈ 1.42 µM) | 60% | – | – | – | 0.391 µg/mL (≈ 1.42 µM) | 50% | 90% | –
11 | Ethyl 6(7)-Hydroxymethyl-3-Methyl-2-Quinoxaline-Carboxylate 1,4-Dioxide [OCH2 CH3 6(7)-CH2 OH CH3] | 25 µg/mL | 25 µg/mL | 4/10 | 5/10 | 6/10 | – | – | – | – | – | – | – | – | – | –
12 | N,3-Dimethyl-6(7)-Hydroxymethyl-2-Quinoxalinecarboxamide 1,4-Dioxide [NHCH3 6(7)-CH2 OH CH3] | 25 µg/mL | 50 µg/mL | 8/10 | 3/10 | 3/10 | – | – | – | – | – | – | – | – | – | –
13 | N-Methyl-6(7)-Hydroxymethyl-2-Quinoxalinecarboxamide 1,4-Dioxide [NHCH3 6(7)-CH2 OH H] | 1.562 µg/mL | 0.781 µg/mL | 4/10 | 6/10 | 10/10 | – | – | – | – | – | – | – | – | – | –
